The source of these data is PubChem BioAssay AID256 (DTP/NCI, 2004).

Where “and” joins values, the source holds several entries; their conditions need not be identical. Equal values may be shown once. Inconclusive results and toxic doses are left out.

For the assay, the system named is CD2F1 mice, L1210 leukemia ip, survival T/C. Put plainly: NCI In Vivo Anticancer Drug Screen. Data for tumor model L1210 Leukemia (intraperitoneal) in CD2F1 (CDF1) mice. The conditions noted are these: higher = longer survival. The procedure, abridged: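 In this screen, transplantable tumors were grown in mice given either the compound or its vehicle. Results were expressed as the treated measurement relative to the control measurement.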

The mark [1] stands for this setting: endpoint: mean survival time, dose: 100.0 mg/kg/injection, schedule: Q04DX002 (ip), vehicle: saline with Tween-80.
Setting [2] is: endpoint: mean survival time, dose: 200.0 mg/kg/injection, schedule: Q04DX002 (ip), vehicle: saline with Tween-80.
Where [3] appears, read: endpoint: mean survival time, dose: 400.0 mg/kg/injection, schedule: Q04DX002 (ip), vehicle: saline with Tween-80.
Where [4] appears, read: endpoint: mean survival time, dose: 100.0 mg/kg/injection, schedule: Q01DX001 (ip), vehicle: saline with Tween-80.
[5] abbreviates: endpoint: mean survival time, dose: 200.0 mg/kg/injection, schedule: Q01DX001 (ip), vehicle: saline with Tween-80.

Turning to `CC[C@](O)(C(=O)O)c1cc2n(c(=O)c1CO)Cc1cc3ccccc3nc1-2`, the T/C is, setting by setting: (endpoint: mean survival time, dose: 1.0 mg/kg/injection, schedule: Q04DX003 (ip), vehicle: water) 100 % of control; (endpoint: mean survival time, dose: 2.0 mg/kg/injection, schedule: Q04DX003 (ip), vehicle: water) 107 % of control; (endpoint: mean survival time, dose: 4.0 mg/kg/injection, schedule: Q04DX003 (ip), vehicle: water) 108 % of control; (endpoint: mean survival time, dose: 12.5 mg/kg/injection, schedule: Q04DX003 (ip), vehicle: water) 159 % of control; (endpoint: mean survival time, dose: 16.0 mg/kg/injection, schedule: Q04DX003 (ip), vehicle: water) 175 % of control; (endpoint: mean survival time, dose: 50.0 mg/kg/injection, schedule: Q04DX003 (ip), vehicle: water) 113 % of control and 119 % of control. For the same molecule, the T/C (endpoint: mean survival time, dose: 100.0 mg/kg/injection, schedule: Q04DX003 (ip), vehicle: water) was 93 % of control; the T/C (endpoint: median survival time, dose: 3.75 mg/kg/injection, schedule: Q04HX004 (iv), vehicle: water) was 115 % of control; the T/C (endpoint: median survival time, dose: 5.0 mg/kg/injection, schedule: Q04DX002 (ip), vehicle: water) was 117 % of control and 121 % of control and 123 % of control; the T/C (endpoint: median survival time, dose: 5.0 mg/kg/injection, schedule: Q04DX002 (iv), vehicle: water) is 115 % of control; the T/C (endpoint: median survival time, dose: 6.2 mg/kg/injection, schedule: Q04HX004 (iv), vehicle: water) was 167 % of control; the T/C (endpoint: median survival time, dose: 6.25 mg/kg/injection, schedule: Q04HX004 (iv), vehicle: saline) was 177 % of control. Besides, the T/C is 162 % of control and 178 % of control (endpoint: median survival time, dose: 6.25 mg/kg/injection, schedule: Q04HX004 (iv), vehicle: water); 170 % of control (endpoint: median survival time, dose: 7.5 mg/kg/injection, schedule: Q04HX004 (iv), vehicle: other); 166 % of control and 180 % of control (endpoint: median survival time, dose: 7.5 mg/kg/injection, schedule: Q04HX004 (iv), vehicle: water); 178 % of control (endpoint: median survival time, dose: 12.5 mg/kg/injection, schedule: Q04DX003 (ip), vehicle: clinical formulation); 167 % of control (endpoint: median survival time, dose: 12.5 mg/kg/injection, schedule: Q04DX003 (ip), vehicle: saline); 160 % of control and 190 % of control (endpoint: median survival time, dose: 12.5 mg/kg/injection, schedule: Q04HX004 (iv), vehicle: saline). Besides, the T/C is 177 % of control and 193 % of control and 196 % of control (endpoint: median survival time, dose: 12.5 mg/kg/injection, schedule: Q04HX004 (iv), vehicle: water); 195 % of control (endpoint: median survival time, dose: 15.0 mg/kg/injection, schedule: Q04HX004 (iv), vehicle: dextrose); 192 % of control (endpoint: median survival time, dose: 15.0 mg/kg/injection, schedule: Q04HX004 (iv), vehicle: other); 200 % of control and 208 % of control (endpoint: median survival time, dose: 15.0 mg/kg/injection, schedule: Q04HX004 (iv), vehicle: water); 151 % of control and 168 % of control (2×) (endpoint: median survival time, dose: 20.0 mg/kg/injection, schedule: Q04DX002 (ip), vehicle: saline); 156 % of control and 195 % of control (endpoint: median survival time, dose: 25.0 mg/kg/injection, schedule: Q04DX002 (ip), vehicle: water). Also, the T/C was 229 % of control (endpoint: median survival time, dose: 25.0 mg/kg/injection, schedule: Q04DX003 (ip), vehicle: clinical formulation); 218 % of control (endpoint: median survival time, dose: 25.0 mg/kg/injection, schedule: Q04DX003 (ip), vehicle: saline); 198 % of control and 226 % of control (endpoint: median survival time, dose: 25.0 mg/kg/injection, schedule: Q04HX004 (iv), vehicle: saline); 206 % of control and 212 % of control and 230 % of control (endpoint: median survival time, dose: 25.0 mg/kg/injection, schedule: Q04HX004 (iv), vehicle: water); 227 % of control (endpoint: median survival time, dose: 30.0 mg/kg/injection, schedule: Q04HX004 (iv), vehicle: dextrose); 219 % of control (endpoint: median survival time, dose: 30.0 mg/kg/injection, schedule: Q04HX004 (iv), vehicle: other). The T/C was 220 % of control and 227 % of control (endpoint: median survival time, dose: 30.0 mg/kg/injection, schedule: Q04HX004 (iv), vehicle: water); 181 % of control and 185 % of control and 200 % of control (endpoint: median survival time, dose: 40.0 mg/kg/injection, schedule: Q04DX002 (ip), vehicle: saline); 183 % of control (endpoint: median survival time, dose: 40.0 mg/kg/injection, schedule: Q04DX002 (iv), vehicle: water); 247 % of control (endpoint: median survival time, dose: 40.0 mg/kg/injection, schedule: Q04HX004 (iv), vehicle: other); 226 % of control and 253 % of control (endpoint: median survival time, dose: 40.0 mg/kg/injection, schedule: Q04HX004 (iv), vehicle: water); 173 % of control and 217 % of control (endpoint: median survival time, dose: 50.0 mg/kg/injection, schedule: Q04DX002 (ip), vehicle: water). Besides, the T/C is 263 % of control (endpoint: median survival time, dose: 50.0 mg/kg/injection, schedule: Q04DX003 (ip), vehicle: saline); 211 % of control and 256 % of control (endpoint: median survival time, dose: 50.0 mg/kg/injection, schedule: Q04HX004 (iv), vehicle: saline); 225 % of control and 261 % of control and 101 % of control (endpoint: median survival time, dose: 50.0 mg/kg/injection, schedule: Q04HX004 (iv), vehicle: water); 205 % of control and 216 % of control and 227 % of control (endpoint: median survival time, dose: 80.0 mg/kg/injection, schedule: Q04DX002 (ip), vehicle: saline); 252 % of control (endpoint: median survival time, dose: 80.0 mg/kg/injection, schedule: Q04DX002 (iv), vehicle: water); 204 % of control and 233 % of control (endpoint: median survival time, dose: 100.0 mg/kg/injection, schedule: Q04DX002 (ip), vehicle: water). In addition, the T/C (endpoint: median survival time, dose: 100.0 mg/kg/injection, schedule: Q04DX003 (ip), vehicle: saline) was 108 % of control.
Consider `COc1ccc(CCNCCc2ccc(OC)c(OC)c2)cc1OC`, for which the T/C runs as follows: (endpoint: mean survival time, dose: 12.5 mg/kg/injection, schedule: Q01DX009 (ip), vehicle: water) 95 % of control; (endpoint: mean survival time, dose: 25.0 mg/kg/injection, schedule: Q01DX009 (ip), vehicle: water) 100 % of control; (endpoint: mean survival time, dose: 50.0 mg/kg/injection, schedule: Q01DX009 (ip), vehicle: water) 102 % of control; (endpoint: mean survival time, dose: 100.0 mg/kg/injection, schedule: Q01DX009 (ip), vehicle: water) 104 % of control.
`Cc1ccc(/C(C#N)=C/c2ccc3c(c2)OCO3)cc1`: the T/C was 94 % of control under setting [1], 97 % of control under setting [2] and 91 % of control under setting [3].
Regarding `COC1=CCC2C(=O)C=CC(=O)C2C1` (configuration not stated), the T/C is 95 % of control (endpoint: mean survival time, dose: 12.5 mg/kg/injection, schedule: Q01DX005 (ip), vehicle: Klucel (hydroxypropylcellulose) (HPC)); 95 % of control (endpoint: mean survival time, dose: 25.0 mg/kg/injection, schedule: Q01DX005 (ip), vehicle: Klucel (hydroxypropylcellulose) (HPC)); 93 % of control (endpoint: mean survival time, dose: 50.0 mg/kg/injection, schedule: Q01DX005 (ip), vehicle: Klucel (hydroxypropylcellulose) (HPC)); 91 % of control (endpoint: mean survival time, dose: 100.0 mg/kg/injection, schedule: Q01DX005 (ip), vehicle: Klucel (hydroxypropylcellulose) (HPC)); 90 % of control (endpoint: mean survival time, dose: 200.0 mg/kg/injection, schedule: Q01DX005 (ip), vehicle: Klucel (hydroxypropylcellulose) (HPC)).
Consider `CC1(C)N=C(N)N=C(N)N1c1ccc(/C=C/C(=O)Nc2cccc(S(=O)(=O)F)c2)cc1`, for which the T/C was 89 % of control under setting [4]; 95 % of control under setting [5]; 92 % of control (endpoint: mean survival time, dose: 400.0 mg/kg/injection, schedule: Q01DX001 (ip), vehicle: saline with Tween-80).
For the molecule `O=C(NCCS)Nc1ccccc1`, the T/C under setting [4] is 102 % of control; the T/C under setting [1] was 104 % of control; the T/C (endpoint: mean survival time, dose: 100.0 mg/kg/injection, schedule: Q04DX003 (ip), vehicle: saline with Tween-80) was 94 % of control; the T/C under setting [5] was 98 % of control; the T/C under setting [2] was 96 % of control; the T/C (endpoint: mean survival time, dose: 200.0 mg/kg/injection, schedule: Q04DX003 (ip), vehicle: saline with Tween-80) is 86 % of control and 91 % of control. For the same molecule, the T/C under setting [3] is 96 % of control; the T/C (endpoint: mean survival time, dose: 400.0 mg/kg/injection, schedule: Q04DX003 (ip), vehicle: saline with Tween-80) is 86 % of control and 92 % of control.
Take `Cc1ccc(S(=O)(=O)N(Cc2ccc(Cl)cc2)N2CCOC2=O)cc1`: the T/C (endpoint: mean survival time, dose: 50.0 mg/kg/injection, schedule: Q01DX009 (ip), vehicle: Klucel (hydroxypropylcellulose) (HPC)) is 92 % of control; the T/C (endpoint: mean survival time, dose: 100.0 mg/kg/injection, schedule: Q01DX009 (ip), vehicle: Klucel (hydroxypropylcellulose) (HPC)) was 93 % of control; the T/C (endpoint: mean survival time, dose: 200.0 mg/kg/injection, schedule: Q01DX009 (ip), vehicle: Klucel (hydroxypropylcellulose) (HPC)) was 98 % of control.
As to `COC(COS(=O)(=O)c1ccc(Br)cc1)(c1ccccc1)c1ccccc1`, the T/C (endpoint: mean survival time, dose: 12.5 mg/kg/injection, schedule: Q01DX009 (ip), vehicle: saline with Tween-80) is 95 % of control; the T/C (endpoint: mean survival time, dose: 25.0 mg/kg/injection, schedule: Q01DX009 (ip), vehicle: saline with Tween-80) is 88 % of control; the T/C (endpoint: mean survival time, dose: 50.0 mg/kg/injection, schedule: Q01DX009 (ip), vehicle: saline with Tween-80) is 88 % of control.
